The target of test [1] is Human CB1R (Cannabanoid receptor 1) (Homo sapiens (Human), UniProt P21554). Put plainly: CB-1 in vitro cAMP assay (HTRF). As to conditions: mean where tested more than once. In kind it is cell-based. The procedure, abridged: (§1)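 HEK-293 cells stably transfected with the human receptor, plated overnight at 4E5 cells/mL. Compounds given as 1/3 serial dilutions from 10 mM DMSO stocks. Stimulation in HBSS/5 mM HEPES/0.1% BSA with 0.5 mM IBMX and forskolin (1.5 μM in buffer); cAMP measured by competitive HTRF immunoassay (d2-cAMP, cryptate anti-cAMP) against a cAMP standard curve.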
Human CB1R (Cannabanoid receptor 1), sequence (P21554 whole entry): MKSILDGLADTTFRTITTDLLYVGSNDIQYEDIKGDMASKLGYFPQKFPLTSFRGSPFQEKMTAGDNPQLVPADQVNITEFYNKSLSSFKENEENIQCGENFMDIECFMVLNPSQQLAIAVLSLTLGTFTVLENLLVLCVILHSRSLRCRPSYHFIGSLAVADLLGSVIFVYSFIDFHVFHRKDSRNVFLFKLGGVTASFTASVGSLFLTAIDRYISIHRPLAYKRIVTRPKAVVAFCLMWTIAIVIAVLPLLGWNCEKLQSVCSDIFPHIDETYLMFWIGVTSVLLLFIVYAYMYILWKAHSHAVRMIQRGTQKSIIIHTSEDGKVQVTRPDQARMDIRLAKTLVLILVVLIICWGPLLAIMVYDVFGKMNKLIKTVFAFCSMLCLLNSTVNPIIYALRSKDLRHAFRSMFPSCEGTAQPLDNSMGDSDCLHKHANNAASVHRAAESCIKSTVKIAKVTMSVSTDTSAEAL

In test [2] the target is Human CB2R (Cannabanoid receptor 2) (Homo sapiens (Human), UniProt P34972). Put plainly: CB-2 in vitro cAMP assay (HTRF). It counts as cell-based. The conditions noted are these: mean where tested more than once. In outline: as §1
Human CB2R (Cannabanoid receptor 2), sequence (P34972 whole entry): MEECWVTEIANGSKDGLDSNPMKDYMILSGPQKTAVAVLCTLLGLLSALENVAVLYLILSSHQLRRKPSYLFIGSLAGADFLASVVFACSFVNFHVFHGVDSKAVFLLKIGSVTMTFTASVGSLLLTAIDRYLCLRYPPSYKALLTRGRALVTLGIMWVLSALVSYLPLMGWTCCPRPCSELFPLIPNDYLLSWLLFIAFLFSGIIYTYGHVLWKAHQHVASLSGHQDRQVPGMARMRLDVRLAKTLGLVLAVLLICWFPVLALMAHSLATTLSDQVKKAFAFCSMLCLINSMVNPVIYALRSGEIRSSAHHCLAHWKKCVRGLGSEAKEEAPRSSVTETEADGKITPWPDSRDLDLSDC
Background: cAMP levels reflect the balance of adenylyl cyclase and phosphodiesterase activity.

Molecules are shown by their SMILES.

Broadly, the EC50 is the midpoint of the concentration-response curve. For the molecule `O=S(=O)(N1CCC(Nc2ncnc3ccc(C(c4ccc(Cl)cc4)c4nccs4)cc23)CC1)C(F)(F)F` (stereo not shown) [Compound #146, 6-((4-chlorophenyl)(thiazol-2-yl)methyl)-N-(1-((trifluoromethyl)sulfonyl)piperidin-4-yl)quinazolin-4-amine], the EC50 is 8 nM in test [1] and 978 nM in test [2].

On to `O=C(O)c1cccc(CN2CCC(Nc3ncnc4ccc(C(c5ccc(Cl)cc5)c5ccc(Cl)cc5)cc34)C2)c1` (stereo not shown) [compound 17, 3-((3-(6-(bis(4-chlorophenyl)methyl)quinazolin-4-ylamino)pyrrolidin-1-yl)methyl)benzoic acid], for which the EC50 in test [1] was 4000 nM; in test [2], 7640 nM.

As for `O=C(O)c1ccccc1CN1CCC(Nc2ncnc3ccc(C(c4ccc(Cl)cc4)c4ccc(Cl)cc4)cc23)CC1` [compound 21, 2-((4-(6-(bis(4-chlorophenyl)methyl)quinazolin-4-ylamino)piperidin-1-yl)methyl)benzoic acid], the figures for the EC50 in test [1] and in test [2] were 4820 nM and 4710 nM, respectively.

Turning to `Oc1ccc(CN2CCC(Nc3ncnc4ccc(C(c5ccc(Cl)cc5)c5ccc(Cl)cc5)cc34)CC2)cc1` [compound 27, 4-((4-(6-(bis(4-chlorophenyl)methyl)quinazolin-4-ylamino)piperidin-1-yl)methyl)phenol], the results for the EC50 in test [1] and in test [2] were 120 nM and greater than 10000 nM, respectively.

On to `O=C(O)c1ccc(CN2CCC(Nc3ncnc4ccc(C(c5ccc(Cl)cc5)c5ccc(Cl)cc5)cc34)CC2)s1` [compound 34, 5-((4-(6-(bis(4-chlorophenyl)methyl)quinazolin-4-ylamino)piperidin-1-yl)methyl)thiophene-2-carboxylic acid], for which the half-maximal effective concentration (EC50) in test [1] is 176 nM; in test [2], greater than 10000 nM.

`NC(=O)c1ccc(CN2CCC(Nc3ncnc4ccc(C(c5ccc(Cl)cc5)c5ccc(Cl)cc5)cc34)CC2)cc1` [compound 38, 4-((4-(6-(bis(4-chlorophenyl)methyl)quinazolin-4-ylamino)piperidin-1-yl)methyl)benzamide]: the EC50 in test [1] turned out to be 191 nM; in test [2] it was 3570 nM.

On to `O=C(NC(CO)(CO)CO)c1ccc(N2CCC(Nc3ncnc4ccc(C(c5ccc(Cl)cc5)c5ccc(Cl)cc5)cc34)CC2)cc1` [compound 42], for which the EC50 in test [1] turned out to be 180 nM; in test [2] it was 216 nM.

As to `O=C(O)c1ccc(CN2CCC(Nc3ncnc4ccc(C(c5ccc(Cl)cc5)c5ccc(Cl)cc5)cc34)CC2)cc1` [compound 44, 4-((4-(6-(bis(4-chlorophenyl)methyl)quinazolin-4-ylamino)piperidin-1-yl)methyl)benzoic acid], the values for the EC50 in test [1] and in test [2] were 580 nM and greater than 10000 nM, respectively.

In the case of `O=C(O)COc1nc(NCc2cccc(C(F)(F)F)c2)c2cc(C(c3ccc(Cl)cc3)c3ccc(Cl)cc3)ccc2n1` [compound 51, 2-((6-(bis(4-chlorophenyl)methyl)-4-((3-(trifluoromethyl)benzyl)amino)quinazolin-2-yl)oxy)acetic acid], the EC50 in test [1] amounted to 583 nM; in test [2], 3340 nM.

For `NC(=O)c1ccc(CNc2ncnc3ccc(C(c4ccc(Cl)cc4)c4ccc(Cl)cc4)cc23)cc1` [compound 56, 4-((6-(bis(4-chlorophenyl)methyl)quinazolin-4-ylamino)methyl)benzamide], the results for the EC50 in test [1] and in test [2] were 446 nM and 9100 nM, respectively.

As for `O=C(O)c1ccc(CNc2ncnc3ccc(C(c4ccc(Cl)cc4)c4ccc(Cl)cc4)cc23)cc1` [compound 60, 4-((6-(bis(4-chlorophenyl)methyl)quinazolin-4-ylamino)methyl)benzoic acid], the EC50 in test [1] is 5300 nM; in test [2], greater than 10000 nM.

In the case of `COC(=O)c1ccc(CNc2ncnc3ccc(C(c4ccc(Cl)cc4)c4ccc(Cl)cc4)cc23)cc1` [compound 61, methyl 4-((6-(bis(4-chlorophenyl)methyl)quinazolin-4-ylamino)methyl)benzoate], the results for the EC50 in test [1] and in test [2] were 20 nM and greater than 10000 nM, respectively.

`Fc1cccc(CNc2ncnc3ccc(C(c4ccc(Cl)cc4)c4ccc(Cl)cc4)cc23)c1` [compound 63, 6-(bis(4-chlorophenyl)methyl)-N-(3-fluorobenzyl)quinazolin-4-amine]: the results for the EC50 in test [1] and in test [2] were 10 nM and 1200 nM, respectively.

`O=C(CC(=O)N1CCC(Nc2ncnc3ccc(C(c4ccc(Cl)cc4)c4ccc(Cl)cc4)cc23)CC1)NCCO` [compound 82, 3-(4-(6-(bis(4-chlorophenyl)methyl)quinazolin-4-ylamino)piperidin-1-yl)-N-(2-hydroxyethyl)-3-oxopropanamide]: the EC50 in test [1] is 5750 nM; in test [2], greater than 10000 nM.

In the case of `O=C(NCCO)c1cccc(N2CCC(Nc3ncnc4ccc(C(c5ccc(Cl)cc5)c5ccc(Cl)cc5)cc34)CC2)c1` [compound 83, 3-(4-(6-(bis(4-chlorophenyl)methyl)quinazolin-4-ylamino)piperidin-1-yl)-N-(2-hydroxyethyl)benzamide], the EC50 in test [1] stood at 85 nM; in test [2], 3500 nM.

As to `NC(=O)CC(=O)N1CCC(Nc2ncnc3ccc(C(c4ccc(Cl)cc4)c4ccc(Cl)cc4)cc23)CC1` [compound 87, 3-(4-(6-(bis(4-chlorophenyl)methyl)quinazolin-4-ylamino)piperidin-1-yl)-3-oxopropanamide], the EC50 in test [1] is 2920 nM; in test [2] it was greater than 10000 nM.

In the case of `O=C(O)CC(=O)N1CCC(Nc2ncnc3ccc(C(c4ccc(Cl)cc4)c4ccc(Cl)cc4)cc23)CC1` [compound 88, 3-(4-(6-(bis(4-chlorophenyl)methyl)quinazolin-4-ylamino)piperidin-1-yl)-3-oxopropanoic acid], the EC50 in test [1] is 799 nM; in test [2], greater than 10000 nM.

Take `CCOC(=O)CC(=O)N1CCC(Nc2ncnc3ccc(C(c4ccc(Cl)cc4)c4ccc(Cl)cc4)cc23)CC1` [compound 89, ethyl 3-(4-(6-(bis(4-chlorophenyl)methyl)quinazolin-4-ylamino)piperidin-1-yl)-3-oxopropanoate]: the EC50 in test [1] is 25 nM; in test [2], 1800 nM.

`O=C(O)c1cccc(N2CCC(Nc3ncnc4ccc(C(c5ccc(Cl)cc5)c5ccc(Cl)cc5)cc34)CC2)c1` [compound 95, 3-(4-(6-(bis(4-chlorophenyl)methyl)quinazolin-4-ylamino)piperidin-1-yl)benzoic acid]: the EC50 in test [1] is 818 nM; in test [2], 3160 nM.

Turning to `NC(=O)c1cccc(N2CCC(Nc3ncnc4ccc(C(c5ccc(Cl)cc5)c5ccc(Cl)cc5)cc34)CC2)c1` [compound 96, 3-(4-(6-(bis(4-chlorophenyl)methyl)quinazolin-4-ylamino)piperidin-1-yl)benzamide], the figures for the EC50 in test [1] and in test [2] were 23 nM and 218 nM, respectively.

For the molecule `COC(=O)c1cccc(N2CCC(Nc3ncnc4ccc(C(c5ccc(Cl)cc5)c5ccc(Cl)cc5)cc34)CC2)c1` [compound 97, methyl 3-(4-(6-(bis(4-chlorophenyl)methyl)quinazolin-4-ylamino)piperidin-1-yl)benzoate], the EC50 in test [1] is 83 nM; in test [2], greater than 10000 nM.

Turning to `O=C(O)c1cccc(S(=O)(=O)N2CCC(Nc3ncnc4ccc(C(c5ccc(Cl)cc5)c5ccc(Cl)cc5)cc34)CC2)c1` [compound 101, 3-(4-(6-(bis(4-chlorophenyl)methyl)quinazolin-4-ylamino)piperidin-1-ylsulfonyl)benzoic acid], the EC50 in test [1] stood at 106 nM; in test [2], 3880 nM.

As for `O=S(=O)(c1ccccc1)N1CCC(Nc2ncnc3ccc(C(c4ccc(Cl)cc4)c4ccc(Cl)cc4)cc23)CC1` [compound 109, 6-(bis(4-chlorophenyl)methyl)-N-(1-(phenylsulfonyl)piperidin-4-yl)quinazolin-4-amine], the EC50 was 4 nM in test [1] and greater than 10000 nM in test [2].

Consider `O=S(=O)(c1ccccn1)N1CCC(Nc2ncnc3ccc(C(c4ccc(Cl)cc4)c4ccc(Cl)cc4)cc23)CC1` [compound 111, 6-(bis(4-chlorophenyl)methyl)-N-(1-(pyridin-2-ylsulfonyl)piperidin-4-yl)quinazolin-4-amine], for which the results for the half-maximal effective concentration (EC50) in test [1] and in test [2] were 15 nM and 2740 nM, respectively.

For `CC(Nc1ncnc2ccc(C(c3ccc(Cl)cc3)c3ccc(Cl)cc3)cc12)c1ccc(C(F)(F)F)cc1` (stereo not shown) [compound 116, 6-(bis(4-chlorophenyl)methyl)-N-(1-(4-(trifluoromethyl)phenyl)ethyl)quinazolin-4-amine], the results for the EC50 in test [1] and in test [2] were 8 nM and 2500 nM, respectively.

Turning to `O=C(c1ccccc1)N1CCC(Nc2ncnc3ccc(C(c4ccc(Cl)cc4)c4ccc(Cl)cc4)cc23)CC1` [compound 119, (4-(6-(bis(4-chlorophenyl)methyl)quinazolin-4-ylamino)piperidin-1-yl)(phenyl)methanone], the EC50 amounted to 5 nM in test [1] and 910 nM in test [2].

In the case of `O=S(=O)(c1ccc(F)cc1)N1CCC(Nc2ncnc3ccc(C(c4ccc(Cl)cc4)c4ccc(Cl)cc4)cc23)CC1` [compound 121, 6-(bis(4-chlorophenyl)methyl)-N-(1-(4-fluorophenylsulfonyl)piperidin-4-yl)quinazolin-4-amine], the EC50 in test [1] turned out to be 3 nM; in test [2] it was 2140 nM.

For `O=S(=O)(c1ccccc1F)N1CCC(Nc2ncnc3ccc(C(c4ccc(Cl)cc4)c4ccc(Cl)cc4)cc23)CC1` [compound 124, 6-(bis(4-chlorophenyl)methyl)-N-(1-(2-fluorophenylsulfonyl)piperidin-4-yl)quinazolin-4-amine], the values for the concentration for a half-maximal effect (EC50) in test [1] and in test [2] were 2 nM and 1930 nM, respectively.

In the case of `FC(F)(F)c1ccc(C2(Nc3ncnc4ccc(C(c5ccc(Cl)cc5)c5ccc(Cl)cc5)cc34)CC2)cc1` [compound 125, 6-(bis(4-chlorophenyl)methyl)-N-(1-(4-(trifluoromethyl)phenyl)cyclopropyl) quinazolin-4-amine], the figures for the EC50 in test [1] and in test [2] were 44 nM and 5940 nM, respectively.

Values taken from US9682955B2, “Quinazoline derivatives useful as CB-1 inverse agonists” (Janssen Pharmaceutica NV, priority 2014, dated 2017).
